The source made the active and inactive calls. How the calls were made is not given here.
Test system: CCRIS mutagenicity, Ames/micronucleus/aberration tests
Assay: CCRIS mutagenicity studies
[1] = Test System: AMES SALMONELLA TYPHIMURIUM, Strain/Indicator: TA98, Metabolic Activation: NONE, Method: STANDARD PLATE
[2] = Test System: AMES SALMONELLA TYPHIMURIUM, Strain/Indicator: TA100, Metabolic Activation: NONE, Method: STANDARD PLATE
[3] = Test System: AMES SALMONELLA TYPHIMURIUM, Strain/Indicator: TA1535, Metabolic Activation: NONE, Method: STANDARD PLATE
[4] = Test System: AMES SALMONELLA TYPHIMURIUM, Strain/Indicator: TA1537, Metabolic Activation: NONE, Method: STANDARD PLATE
[5] = Test System: AMES SALMONELLA TYPHIMURIUM, Strain/Indicator: TA98, Metabolic Activation: RAT, LIVER, S-9, AROCLOR 1254, Method: STANDARD PLATE
[6] = Test System: AMES SALMONELLA TYPHIMURIUM, Strain/Indicator: TA100, Metabolic Activation: RAT, LIVER, S-9, AROCLOR 1254, Method: STANDARD PLATE

CC1CCC(C(C)C)C(OC(=O)c2ccccc2N)C1 (stereo not given)
mutagenic call (Test System: AMES SALMONELLA TYPHIMURIUM, Strain/Indicator: TA98, Metabolic Activation: HAMSTER, LIVER, S-9, AROCLOR 1254 (10%), Method: STANDARD PLATE): inactive; negative
mutagenic call [1]: inactive; negative
mutagenic call (Test System: AMES SALMONELLA TYPHIMURIUM, Strain/Indicator: TA98, Metabolic Activation: RAT, LIVER, S-9, AROCLOR 1254 (10%), Method: STANDARD PLATE): inactive; negative
mutagenic call (Test System: AMES SALMONELLA TYPHIMURIUM, Strain/Indicator: TA100, Metabolic Activation: HAMSTER, LIVER, S-9, AROCLOR 1254 (10%), Method: STANDARD PLATE): inactive; negative
mutagenic call [2]: inactive; negative
mutagenic call (Test System: AMES SALMONELLA TYPHIMURIUM, Strain/Indicator: TA100, Metabolic Activation: RAT, LIVER, S-9, AROCLOR 1254 (10%), Method: STANDARD PLATE): inactive; negative
mutagenic call (Test System: AMES SALMONELLA TYPHIMURIUM, Strain/Indicator: TA1535, Metabolic Activation: HAMSTER, LIVER, S-9, AROCLOR 1254 (10%), Method: STANDARD PLATE): inactive; negative
mutagenic call [3]: inactive; negative
mutagenic call (Test System: AMES SALMONELLA TYPHIMURIUM, Strain/Indicator: TA1535, Metabolic Activation: RAT, LIVER, S-9, AROCLOR 1254 (10%), Method: STANDARD PLATE): inactive; negative
mutagenic call (Test System: AMES SALMONELLA TYPHIMURIUM, Strain/Indicator: TA1537, Metabolic Activation: HAMSTER, LIVER, S-9, AROCLOR 1254 (10%), Method: STANDARD PLATE): inactive; negative
mutagenic call [4]: inactive; negative
mutagenic call (Test System: AMES SALMONELLA TYPHIMURIUM, Strain/Indicator: TA1537, Metabolic Activation: RAT, LIVER, S-9, AROCLOR 1254 (10%), Method: STANDARD PLATE): inactive; negative
mutagenic call (Test System: AMES SALMONELLA TYPHIMURIUM, Strain/Indicator: TA1538, Metabolic Activation: HAMSTER, LIVER, S-9, AROCLOR 1254 (10%), Method: STANDARD PLATE): inactive; negative
mutagenic call (Test System: AMES SALMONELLA TYPHIMURIUM, Strain/Indicator: TA1538, Metabolic Activation: NONE, Method: STANDARD PLATE): inactive; negative
mutagenic call (Test System: AMES SALMONELLA TYPHIMURIUM, Strain/Indicator: TA1538, Metabolic Activation: RAT, LIVER, S-9, AROCLOR 1254 (10%), Method: STANDARD PLATE): inactive; negative
mutagenic call (Test System: MOUSE LYMPHOMA, Strain/Indicator: L5178Y (TK+/TK-), Metabolic Activation: NONE, Method: SUSPENSION/PLATE): inactive; negative. reevaluation of results: negative
mutagenic call (Test System: MOUSE LYMPHOMA, Strain/Indicator: L5178Y (TK+/TK-), Metabolic Activation: RAT, LIVER, S-9, AROCLOR 1254, Method: SUSPENSION/PLATE): inactive; negative. reevaluation of results: equivocal

c1cc2ccc3ccnc4ccc(c1)c2c34
mutagenic call [1]: active; positive
mutagenic call [5]: active; positive
mutagenic call [2]: inactive; negative
mutagenic call [6]: active; positive

c1ccc([C@H]2O[C@H]2c2ccccc2)cc1
mutagenic call (Test System: UDS RAT HEPATOCYTES, Strain/Indicator: THY INCORP, Metabolic Activation: NONE): inactive; negative

O=[N+]([O-])c1ccc(CCO)cc1
mutagenic call (Test System: AMES SALMONELLA TYPHIMURIUM, Strain/Indicator: TA97, Metabolic Activation: HAMSTER, LIVER, S-9, AROCLOR 1254 (10%), Method: PREINCUBATION): inactive; negative
mutagenic call (Test System: AMES SALMONELLA TYPHIMURIUM, Strain/Indicator: TA97, Metabolic Activation: NONE, Method: PREINCUBATION): inactive; negative
mutagenic call (Test System: AMES SALMONELLA TYPHIMURIUM, Strain/Indicator: TA97, Metabolic Activation: RAT, LIVER, S-9, AROCLOR 1254 (10%), Method: PREINCUBATION): inactive; negative
mutagenic call (Test System: AMES SALMONELLA TYPHIMURIUM, Strain/Indicator: TA98, Metabolic Activation: HAMSTER, LIVER, S-9, AROCLOR 1254 (10%), Method: PREINCUBATION): active; positive
mutagenic call (Test System: AMES SALMONELLA TYPHIMURIUM, Strain/Indicator: TA98, Metabolic Activation: NONE, Method: PREINCUBATION): active; positive
mutagenic call (Test System: AMES SALMONELLA TYPHIMURIUM, Strain/Indicator: TA98, Metabolic Activation: RAT, LIVER, S-9, AROCLOR 1254 (10%), Method: PREINCUBATION): active; positive
mutagenic call (Test System: AMES SALMONELLA TYPHIMURIUM, Strain/Indicator: TA100, Metabolic Activation: HAMSTER, LIVER, S-9, AROCLOR 1254 (10%), Method: PREINCUBATION): active; positive
mutagenic call (Test System: AMES SALMONELLA TYPHIMURIUM, Strain/Indicator: TA100, Metabolic Activation: NONE, Method: PREINCUBATION): inactive; negative
mutagenic call (Test System: AMES SALMONELLA TYPHIMURIUM, Strain/Indicator: TA100, Metabolic Activation: RAT, LIVER, S-9, AROCLOR 1254 (10%), Method: PREINCUBATION): active; positive
mutagenic call (Test System: AMES SALMONELLA TYPHIMURIUM, Strain/Indicator: TA1535, Metabolic Activation: HAMSTER, LIVER, S-9, AROCLOR 1254 (10%), Method: PREINCUBATION): active; positive
mutagenic call (Test System: AMES SALMONELLA TYPHIMURIUM, Strain/Indicator: TA1535, Metabolic Activation: NONE, Method: PREINCUBATION): inactive; negative
mutagenic call (Test System: AMES SALMONELLA TYPHIMURIUM, Strain/Indicator: TA1535, Metabolic Activation: RAT, LIVER, S-9, AROCLOR 1254 (10%), Method: PREINCUBATION): active; positive

O=S(=O)(Cc1ccccc1)N1[C@@H]2c3ccccc3-c3ccccc3[C@@H]21 (stereo not given in full)
mutagenic call [2]: active; positive

CCCCOC(=O)c1cccc2cccnc12
mutagenic call [1]: inactive; negative
mutagenic call [5]: inactive; negative
mutagenic call [2]: inactive; negative
mutagenic call [6]: inactive; negative
mutagenic call [3]: inactive; negative
mutagenic call (Test System: AMES SALMONELLA TYPHIMURIUM, Strain/Indicator: TA1535, Metabolic Activation: RAT, LIVER, S-9, AROCLOR 1254, Method: STANDARD PLATE): inactive; negative
mutagenic call [4]: inactive; negative
mutagenic call (Test System: AMES SALMONELLA TYPHIMURIUM, Strain/Indicator: TA1537, Metabolic Activation: RAT, LIVER, S-9, AROCLOR 1254, Method: STANDARD PLATE): inactive; negative

C[C@H]1CCC/C=C/[C@@H]2C[C@H](O)C[C@H]2[C@H](O)/C=C/C(=O)O1
mutagenic call (Test System: Mouse lymphoma, Strain/Indicator: L5178Y (tk+/tk-), Metabolic Activation: None, Method: Suspension/plate): inactive; negative
mutagenic call (Test System: Mouse lymphoma, Strain/Indicator: L5178Y (tk+/tk-), Metabolic Activation: Rat, Liver, S-9, Aroclor 1254, Method: Suspension/plate): equivocal

Source: PubChem BioAssay AID1259407 (Chemical Carcinogenesis Research Information System (CCRIS), 2018)
